Data taken from US5939437A, “CCK and gastrin receptor ligands” (James Black Foundation Limited, priority 1994, dated 1999).

How the values were obtained:
CCKB = biological target: T1, CCKB (Mus musculus, UniProt P56481); experiment: radioligand binding assay at the CCKB (CCK8 [sic]) receptor in mouse cortical membranes; conditions: [125I]-CCK8S 200 pM, 150 min at 21±3° C.; for Ki: read-out: CCKB pKi (converted)
T1 construct: The cortex was dissected, weighed and homogenised in 40 ml ice-cold buffer; from tissue; host or cells: cerebral cortex membranes of male CD1 mice (Charles River)
T1 sequence (P56481 1-453): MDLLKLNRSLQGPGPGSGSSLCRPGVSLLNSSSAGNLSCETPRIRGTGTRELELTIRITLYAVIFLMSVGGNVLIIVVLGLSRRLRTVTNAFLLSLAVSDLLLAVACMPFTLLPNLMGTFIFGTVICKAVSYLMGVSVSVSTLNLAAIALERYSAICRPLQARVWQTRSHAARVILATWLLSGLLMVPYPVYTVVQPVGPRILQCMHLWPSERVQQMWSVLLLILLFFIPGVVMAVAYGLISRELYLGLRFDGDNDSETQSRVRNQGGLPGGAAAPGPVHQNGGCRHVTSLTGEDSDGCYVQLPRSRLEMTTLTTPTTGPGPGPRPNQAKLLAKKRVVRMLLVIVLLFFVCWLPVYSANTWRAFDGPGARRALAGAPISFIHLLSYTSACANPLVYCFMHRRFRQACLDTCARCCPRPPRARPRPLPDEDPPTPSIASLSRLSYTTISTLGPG
Method: The compounds of the examples were tested for binding at the CCK8 receptor in mouse cortical membranes by means of a radioligand binding assay. The procedure was as follows: The whole brains from male mice (CD1 22-25 g; Charles River) were removed and placed in ice-cold buffer (pH7.2@21±3° C.) of the following composition (mM); 10 HEPES, 130 NaCl, 4.7 KCl, 5 MgCl2, 1 EDTA and containing 0.25 g.1^-1 bacitracin. The cortex was dissected, weighed and homogenised in 40 ml ice-cold buffer using a Teflon-in-glass homogeniser. The homogenate was centrifuged at 39,800 g for 20 min at 4° C., the supernatant discarded and the pellet resuspended by homogenisation in fresh buffer. The homogenate was recentrifuged (39,800 g; 20 min@4° C.) and the final pellet was resuspended in HEPES buffer to give a tissue concentration of 2 mg.ml^-1 (original wet weight). The membranes ([…]) were incubated for 150 min at 21±3° C. in a final volume of 0.5 ml with HEPES buffer containing [^25 I]-CCK8S (0.05 ml; 200 pM NEN 2200 Ci.mmol^-1) and competing compound. Total and non-specific binding of [^125 I]-CCK8S were defined using 0.05 ml of buffer and 0.05 ml of […] L-365,260, respectively. The assay was terminated by rapid filtration through pre-soaked Whatman GF/B 35 filters using a Brandell Cell harvester. The filters were washed (3×3 ml) with ice-cold 5 mM Tris-HCl (pH7.4@4° C.) and bound radioactivity determined by counting (1 min.) in a gamma-counter.

CCKA = biological target: T2, CCKA (Cavia porcellus, UniProt Q63931); experiment: CCKA binding assay (guinea-pig pancreas membranes); conditions: [125I]-CCK8(S) 200 pM, 0.375 μM PD134,308 present, 150 minutes at 21±3° C.; for Ki: read-out: CCKA pKi (converted)
T2 construct: The pancreatata were homogenised in 40 ml ice-cold HEPES buffer; from tissue; host or cells: pancreas membranes of male Dunkin Hartley guinea-pigs
T2 sequence (Q63931 1-430): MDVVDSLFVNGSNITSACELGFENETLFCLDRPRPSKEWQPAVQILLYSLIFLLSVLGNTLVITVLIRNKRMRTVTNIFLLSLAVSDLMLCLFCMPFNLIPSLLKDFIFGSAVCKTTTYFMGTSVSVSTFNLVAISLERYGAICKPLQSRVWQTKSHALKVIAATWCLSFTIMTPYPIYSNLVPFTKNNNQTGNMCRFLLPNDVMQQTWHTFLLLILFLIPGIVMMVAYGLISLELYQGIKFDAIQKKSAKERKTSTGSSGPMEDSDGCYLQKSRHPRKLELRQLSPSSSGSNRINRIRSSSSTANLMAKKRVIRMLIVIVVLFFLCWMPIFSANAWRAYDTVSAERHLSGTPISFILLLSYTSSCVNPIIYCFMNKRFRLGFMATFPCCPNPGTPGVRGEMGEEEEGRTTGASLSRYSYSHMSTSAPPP
Method: The compounds of the examples were also tested in a CCKA binding assay as follows:
The pancreatata were removed from male guinea-pigs (200-300 g; Dunkin Hartley) and placed in ice-cold HEPES buffer (pH 7.2@21 ±3° C.). The pancreatata were homogenised in 40 ml ice-cold HEPES buffer using a polytron (Brinkman, PT10, setting 10) 4×1 second. The homogenate was centrifuged at 39,800 g for 15 min at 4° C. The supernatant was discarded and the pellet re-suspended using a Teflon-in-glass homogeniser in 20 volumes of fresh buffer and re-centrifuged as above. The final pellet was re-suspended using a Teflon-in-glass homogeniser to a tissue concentration of 1 mg.ml^-1 (original wet weight), and filtered through 500 μm pore-size Nytex mesh.
The membranes (400 μl; containing 0.375 μM PD134,308) are incubated for 150 minutes at 21±3° C. in a final volume of 0.5 ml with HEPES buffer containing [^125 I]-CCK8 (S) (50 μl; 200 pM) and competing compound. Total and non-specific binding of [^125 I]-CCK^8 (S) are defined using 50 μl of buffer and 50 μl of 100 nM L-364,718respectively. The assay is terminated by rapid filtration through pre-soaked Whatman GF/B filters using a Brandell Cell Harvester. The filters were washed (3×3 ml) with ice-cold 50 mM Tris HCl (pH 7.4 at 4° C. and bound radioactivity is determined by counting (1 min) in a gamma counter.

Gastrin = biological target: T3, Gastrin (Rattus norvegicus, UniProt P30553); experiment: gastrin antagonist activity in an immature rat stomach assay (pentagastrin-stimulated acid secretion, isolated stomach); conditions: cumulative pentagastrin dose-response curves, 60 min after drug; for Kb: read-out: Gastrin pKB (converted)
T3 construct: The stomach was excised and flushed with ca. 1 ml unbuffered physiological saline solution; from tissue; host or cells: isolated whole stomach of immature rats (33-50 g, ca. 21 days old)
T3 sequence (P30553 1-452): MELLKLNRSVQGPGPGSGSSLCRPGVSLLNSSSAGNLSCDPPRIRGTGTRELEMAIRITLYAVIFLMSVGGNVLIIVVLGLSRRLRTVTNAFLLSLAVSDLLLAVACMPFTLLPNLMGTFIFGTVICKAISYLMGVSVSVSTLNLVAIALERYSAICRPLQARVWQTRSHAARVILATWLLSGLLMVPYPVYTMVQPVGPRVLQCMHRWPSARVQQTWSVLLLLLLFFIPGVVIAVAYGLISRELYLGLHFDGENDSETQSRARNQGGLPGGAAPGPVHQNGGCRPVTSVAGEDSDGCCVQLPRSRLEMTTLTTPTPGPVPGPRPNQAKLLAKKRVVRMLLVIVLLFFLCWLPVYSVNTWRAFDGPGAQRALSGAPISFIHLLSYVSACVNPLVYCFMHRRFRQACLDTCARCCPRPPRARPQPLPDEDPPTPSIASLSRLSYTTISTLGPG
Method: The compounds of the examples were also tested for gastrin antagonist activity in an immature rat stomach assay. The procedure was follows:
The oesophagus of immature rats (33-50 g, ca. 21 days old) was ligated at the level of the cardiac sphincter and the duodenal sphincter was cannulated. The stomach was excised and flushed with ca. 1 ml unbuffered physiological saline solution. The fundus was punctured and cannulated. A further 4-5 ml of unbuffered solution was flushed through the stomach to ensure the preparation was not leaking. The stomach was lowered into a jacketed organ bath containing 40 ml of buffered solution containing 3×10^-8 M5methylfurmethide, maintained at 37° and gassed vigorously with 95% O2 /5% CO2. The stomach was continuously perfused at a rate of 1 ml min^-1 with unbuffered solution gassed with 100% O2 with the perfusate passing over an internally referenced pH-electrode fixed 12 cm above the stomach.
After 120 min of stabilisation the drugs were added directly to the serosal solution in the organ bath and after a further 60 min cumulative pentagastrin dose-response curves were started. Changes in acid secretion were monitored and the curves analysed according to Black et. al., Br. J. Pharmacol., 1985, 86, 581.

Row | Compound | Ki (CCKB) [nM] | Kb (Gastrin) [nM] | other results
1 | O=C(O)c1cc(NC(=O)[C@H](Cc2ccccc2)NC(=O)c2ccccc2C(=O)NCc2cccc3ccccc23)cc(C(=O)O)c1 [Example 5, (1R-(3,5-dicarboxyphenylaminocarbonyl)-2-phenylethylaminocarbonyl)-2-(1-naphthalenemethylaminocarbonyl)-benzene] |  |  | CCKB pKi (CCKB): 6.3; CCKA pKi (CCKA): 7.0
2 | O=C(O)c1cc(NC(=O)[C@H](Cc2ccccc2)NC(=O)c2c(F)ccc(F)c2C(=O)NCC23CC4CC(CC(C4)C2)C3)cc(C(=O)O)c1 [Example 22, 1-(1S-(3,5-dicarboxyphenylamino-carbonyl)-2-phenylethylaminocarbonyl)-2-(1-adamantanemethyl-aminocarbonyl)-3,6-difluorobenzene] |  |  | Gastrin pKB (Gastrin): 7.5; CCKB pKi (CCKB): 7.3
3 | O=C(O)c1cc(NC(=O)[C@H](Cc2ccccc2)N2Cc3cccc(C(=O)NCC45CC6CC(CC(C6)C4)C5)c3C2=O)cc(C(=O)O)c1 [Example 27, 7-(1-adamantanemethylaminocarbonyl)-2-(1S-(3,5-dicarboxyphenylaminocarbonyl)-2-phenylethyl) indol-1-one] | 126 |  | Ki (CCKA): 3160 nM
4 | COc1ccc(C(=O)N[C@@H](Cc2ccccc2F)C(=O)Nc2cc(C(=O)O)cc(C(=O)O)c2)c(C(=O)NCC23CC4CC(CC(C4)C2)C3)c1 [Example 28, 1-(1S-(3,5-dicarboxyphenylamino-carbonyl)-2-(2-fluorophenyl)ethylaminocarbonyl)-2-(1-adamantane-methylaminocarbonyl)-4-methoxybenzene] | 15.8 | 12.6 | 
5 | COc1ccc(C(=O)NCC23CC4CC(CC(C4)C2)C3)c(C(=O)N[C@@H](Cc2ccccc2F)C(=O)Nc2cc(C(=O)O)cc(C(=O)O)c2)c1 [Example 29, 1-(1S-(3,5-dicarboxyphenylamino-carbonyl)-2-(2-fluorophenyl)ethylaminocarbonyl)-2-(1-adamantane-methylaminocarbonyl)-5-methoxybenzene] | 15.8 | 1580 | 

Now from value to compound, other results behind:

Row | Ki (CCKB) [nM] | Kb (Gastrin) [nM] | Compound | other results
6 | 158 |  | O=C(Cc1ccccc1C(=O)NCC12CC3CC(CC(C3)C1)C2)N[C@@H](Cc1ccccc1)C(=O)Nc1cc(C(=O)O)cc(C(=O)O)c1 [Example 8, (1S-(3,5-dicarboxyphenylaminocarbonyl)-2-phenylethylaminocarbonylmethyl)-2-(1-adamantanemethylamino-carbonyl)benzene] | Ki (CCKA): 3160 nM
7 | 251 |  | O=C(Cc1ccccc1C(=O)N[C@@H](Cc1ccccc1)C(=O)Nc1cc(C(=O)O)cc(C(=O)O)c1)NCC12CC3CC(CC(C3)C1)C2 [Example 9, (1S-(3,5-dicarboxyphenylaminocarbonyl)-2-phenylethylaminocarbonyl)-2-(1-adamantanemethylaminocarbonyl-methyl)benzene] | Ki (CCKA): 3160 nM
8 | 25.1 | 31.6 | COc1ccc(C(=O)N[C@@H](Cc2ccccc2)C(=O)Nc2cc(C(=O)O)cc(C(=O)O)c2)c(C(=O)NCC23CC4CC(CC(C4)C2)C3)c1 [Example 18, 1-(1S-(3,5-dicarboxyphenylamino-carbonyl)-2-phenylethylaminocarbonyl)-2-(1-adamantanemethyl-aminocarbonyl)-4-methoxybenzene] | 
9 | 316 | 126 | O=C(O)c1cc(NC(=O)[C@H](Cc2ccccc2)NC(=O)c2cc(O)ccc2C(=O)NCC23CC4CC(CC(C4)C2)C3)cc(C(=O)O)c1 [Example 23, 1-(1S-(3,5-dicarboxyphenylamino-carbonyl)-2-phenylethylaminocarbonyl)-2-(1-adamantanemethylamino-carbonyl)-5-hydroxybenzene] | 
10 | 7.94 | 5.01 | CNc1ccc(C(=O)N[C@@H](Cc2ccccc2)C(=O)Nc2cc(C(=O)O)cc(C(=O)O)c2)c(C(=O)NCC23CC4CC(CC(C4)C2)C3)c1 [Example 24, 1-(1S-(3,5-dicarboxyphenylamino-carbonyl)-2-phenylethylaminocarbonyl)-2-(1-adamantanemethyl-aminocarbonyl)-4-methylaminobenzene] | 
11 | 1.58 | 2.51 | CN(C)c1ccc(C(=O)N[C@@H](Cc2ccccc2)C(=O)Nc2cc(C(=O)O)cc(C(=O)O)c2)c(C(=O)NCC23CC4CC(CC(C4)C2)C3)c1 [Example 25, 1-(1S-(3,5-dicarboxyphenylamino-carbonyl)-2-phenylethylaminocarbonyl)-2-(l-adamantanemethyl-aminocarbonyl)-4-dimethylaminobenzene] | 
